Source: patent publication US20150005281A1, “PYRIMIDINE-2,4-DIAMINE DERIVATIVES AS KINASE INHIBITORS” (Cellzome Limited, priority 2011, published 2015)
pIC50: −log10 of the molar value.

How the values were obtained:
Format in all cases: binding
JAK1 = biological target: T1, JAK1 (Homo sapiens, UniProt P23458); experiment: Kinobeads assay with immunodetection, JAK1; settings: for pIC50: Kinobeads assay, mixed Molt4/Ramos lysate, read-out: Inhibition values (IC50) JAK1
T1 construct: endogenous in cells; host or cells: Molt4 (ATCC CRL-1582) and Ramos (ATCC CRL-1596) cells; mixed lysate 1:2
Protocol: (§1) Determination of the Effect of the Compounds According to the Invention on Janus Kinases (JAK Family) in Kinobeads™ Assays with Immunodetection of Kinases
(§2) The compounds of the present invention as described in the previous examples were tested in a Kinobeads™ assay as described for ZAP-70 (WO-A 2007/137867). Briefly, test compounds (at various concentrations) and the affinity matrix with the immobilized aminopyrido-pyrimidine ligand 24 were added to cell lysate aliquots and allowed to bind to the proteins in the lysate sample. After the incubation time the beads with captured proteins were separated from the lysate. Bound proteins were then eluted and the presence of JAK1, JAK2, JAK3 and TYK2 was detected and quantified using specific antibodies in a dot blot procedure and the Odyssey infrared detection system. Dose response curves for individual kinases were generated and IC50 values calculated. Kinobeads™ assays for ZAP-70 (WO-A 2007/137867) and for kinase selectivity profiling (WO-A 2006/134056) have been previously described.
(§3) The affinity matrix was washed two times with 15 mL of 1×DP buffer containing 0.2% NP40 (IGEPAL® CA-630, Sigma, #13021) and then resuspended in 1×DP buffer containing 0.2% NP40 (3% beads slurry).
(§4) 5×DP buffer: 250 mM Tris-HCl pH 7.4, 25% Glycerol, 7.5 mM MgCl2, 750 mM NaCl, 5 mM Na3VO4; filter the 5×DP buffer through a 0.22 μm filter and store in aliquots at −80° C. The 5×DP buffer is diluted with H2O to 1×DP buffer containing 1 mM DTT and 25 mM NaF.
(§5) Stock solutions of test compounds were prepared in DMSO. In a 96 well plate 30 μL solution of diluted test compounds at 5 mM in DMSO were prepared. Starting with this solution a 1:3 dilution series (9 steps) was prepared. For control experiments (no test compound) a buffer containing 2% DMSO was used.
(§6) Molt4 cells (ATCC catalogue number CRL-1582) and Ramos cells (ATCC catalogue number CRL-1596) were grown in 1 L Spinner flasks (Integra Biosciences, #182101) in suspension in RPMI 1640 medium (Invitrogen, #21875-034) supplemented with 10% Fetal Bovine Serum (Invitrogen) at a density between 0.15×10^6 and 1.2×10^6 cells/mL. Cells were harvested by centrifugation, washed once with 1×PBS buffer (Invitrogen, #14190-094) and cell pellets were frozen in liquid nitrogen and subsequently stored at −80° C. Cells were homogenized in a Potter S homogenizer in lysis buffer: 50 mM Tris-HCl, 0.8% NP40, 5% glycerol, 150 mM NaCl, 1.5 mM MgCl2, 25 mM NaF, 1 mM sodium vanadate, 1 mM DTT, pH 7.5. One complete EDTA-free tablet (protease inhibitor cocktail, Roche Diagnostics, 1873580) per 25 ml, buffer was added. The material was dounced 10 times using a mechanized POTTER S, transferred to 50 mL falcon tubes, incubated for 30 minutes on ice and spun down for 10 minutes at 20,000 g at 4° C. (10,000 rpm in Sorvall SLA600, precooled). The supernatant was transferred to an ultracentrifuge (UZ)-polycarbonate tube (Beckmann, 355654) and spun for 1 hour at 100.000 g at 4° C. (33.500 rpm in Ti50.2, precooled). The supernatant was transferred again to a fresh 50 mL falcon tube, the protein concentration was determined by a Bradford assay (BioRad) and samples containing 50 mg of protein per aliquot were prepared. The samples were immediately used for experiments or frozen in liquid nitrogen and stored frozen at −80° C.
(§7) Cell lysate (approximately 50 mg protein per plate) was thawed in a water bath at room temperature and then stored on ice. To the thawed cell lysate 1×DP 0.8% NP40 buffer containing protease inhibitors (1 tablet for 25 mL buffer; EDTA-free protease inhibitor cocktail; Roche Diagnostics 1873580) was added in order to reach a final protein concentration of 10 mg/mL total protein. The diluted cell lysate was stored on ice. Mixed Molt4/Ramos lysate was prepared by combining one volume of Molt4 lysate and two volumes of Ramos lysate (ratio 1:2). […]

JAK2 = biological target: T2, JAK2 (Homo sapiens, UniProt O60674); experiment: Kinobeads assay with immunodetection, JAK2; settings: mixed Molt4/Ramos lysate, read-out: Inhibition values (IC50) JAK2
T2 construct: endogenous in cells; host or cells: Molt4 (ATCC CRL-1582) and Ramos (ATCC CRL-1596) cells; mixed lysate 1:2
Protocol: as §1, §2, §3, §4, §5, §6, §7

JAK3 = biological target: T3, JAK3 (Homo sapiens, UniProt P52333); experiment: Kinobeads assay with immunodetection, JAK3; settings: for pIC50: Kinobeads assay, mixed Molt4/Ramos lysate, read-out: Inhibition values (IC50) JAK3
T3 construct: endogenous in cells; host or cells: Molt4 (ATCC CRL-1582) and Ramos (ATCC CRL-1596) cells; mixed lysate 1:2
T3 sequence (P52333 1-1124): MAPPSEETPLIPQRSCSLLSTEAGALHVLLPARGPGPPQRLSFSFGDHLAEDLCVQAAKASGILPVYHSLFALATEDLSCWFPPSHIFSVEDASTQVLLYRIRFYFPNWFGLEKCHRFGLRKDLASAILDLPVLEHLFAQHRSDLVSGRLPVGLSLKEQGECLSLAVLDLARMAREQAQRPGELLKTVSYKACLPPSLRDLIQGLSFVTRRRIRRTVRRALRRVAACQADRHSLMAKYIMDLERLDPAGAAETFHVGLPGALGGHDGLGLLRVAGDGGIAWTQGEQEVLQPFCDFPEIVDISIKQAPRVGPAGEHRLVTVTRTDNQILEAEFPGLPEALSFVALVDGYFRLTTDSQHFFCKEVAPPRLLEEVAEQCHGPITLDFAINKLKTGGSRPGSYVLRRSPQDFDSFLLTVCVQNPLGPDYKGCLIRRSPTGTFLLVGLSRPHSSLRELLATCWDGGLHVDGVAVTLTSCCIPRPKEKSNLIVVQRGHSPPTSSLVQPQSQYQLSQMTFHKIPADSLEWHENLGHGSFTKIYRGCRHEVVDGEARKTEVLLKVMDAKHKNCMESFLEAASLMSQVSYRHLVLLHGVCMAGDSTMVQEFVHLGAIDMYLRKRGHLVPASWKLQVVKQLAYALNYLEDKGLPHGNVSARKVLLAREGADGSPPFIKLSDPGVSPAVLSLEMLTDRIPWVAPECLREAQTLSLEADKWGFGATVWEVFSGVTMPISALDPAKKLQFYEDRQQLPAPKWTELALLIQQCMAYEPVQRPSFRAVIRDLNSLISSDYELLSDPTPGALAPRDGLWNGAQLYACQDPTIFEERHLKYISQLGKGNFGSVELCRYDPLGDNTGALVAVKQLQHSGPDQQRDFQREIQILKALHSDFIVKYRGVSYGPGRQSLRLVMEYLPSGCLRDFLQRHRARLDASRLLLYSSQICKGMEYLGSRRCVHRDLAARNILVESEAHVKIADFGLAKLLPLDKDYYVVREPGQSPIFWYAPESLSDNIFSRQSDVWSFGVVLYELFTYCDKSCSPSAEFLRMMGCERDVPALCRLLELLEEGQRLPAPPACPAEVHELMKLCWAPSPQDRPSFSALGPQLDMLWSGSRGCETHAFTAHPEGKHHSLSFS
Protocol: as §1, §2, §3, §4, §5, §6, §7

TYK2 = biological target: T4, TYK2 (Homo sapiens, UniProt P29597); experiment: Kinobeads assay with immunodetection, TYK2; settings: for pIC50: Kinobeads assay, mixed Molt4/Ramos lysate, read-out: Inhibition values (IC50) Tyk2
T4 construct: endogenous in cells; host or cells: Molt4 (ATCC CRL-1582) and Ramos (ATCC CRL-1596) cells; mixed lysate 1:2
Protocol: as §1, §2, §3, §4, §5, §6, §7

T1 sequence (P23458 whole entry): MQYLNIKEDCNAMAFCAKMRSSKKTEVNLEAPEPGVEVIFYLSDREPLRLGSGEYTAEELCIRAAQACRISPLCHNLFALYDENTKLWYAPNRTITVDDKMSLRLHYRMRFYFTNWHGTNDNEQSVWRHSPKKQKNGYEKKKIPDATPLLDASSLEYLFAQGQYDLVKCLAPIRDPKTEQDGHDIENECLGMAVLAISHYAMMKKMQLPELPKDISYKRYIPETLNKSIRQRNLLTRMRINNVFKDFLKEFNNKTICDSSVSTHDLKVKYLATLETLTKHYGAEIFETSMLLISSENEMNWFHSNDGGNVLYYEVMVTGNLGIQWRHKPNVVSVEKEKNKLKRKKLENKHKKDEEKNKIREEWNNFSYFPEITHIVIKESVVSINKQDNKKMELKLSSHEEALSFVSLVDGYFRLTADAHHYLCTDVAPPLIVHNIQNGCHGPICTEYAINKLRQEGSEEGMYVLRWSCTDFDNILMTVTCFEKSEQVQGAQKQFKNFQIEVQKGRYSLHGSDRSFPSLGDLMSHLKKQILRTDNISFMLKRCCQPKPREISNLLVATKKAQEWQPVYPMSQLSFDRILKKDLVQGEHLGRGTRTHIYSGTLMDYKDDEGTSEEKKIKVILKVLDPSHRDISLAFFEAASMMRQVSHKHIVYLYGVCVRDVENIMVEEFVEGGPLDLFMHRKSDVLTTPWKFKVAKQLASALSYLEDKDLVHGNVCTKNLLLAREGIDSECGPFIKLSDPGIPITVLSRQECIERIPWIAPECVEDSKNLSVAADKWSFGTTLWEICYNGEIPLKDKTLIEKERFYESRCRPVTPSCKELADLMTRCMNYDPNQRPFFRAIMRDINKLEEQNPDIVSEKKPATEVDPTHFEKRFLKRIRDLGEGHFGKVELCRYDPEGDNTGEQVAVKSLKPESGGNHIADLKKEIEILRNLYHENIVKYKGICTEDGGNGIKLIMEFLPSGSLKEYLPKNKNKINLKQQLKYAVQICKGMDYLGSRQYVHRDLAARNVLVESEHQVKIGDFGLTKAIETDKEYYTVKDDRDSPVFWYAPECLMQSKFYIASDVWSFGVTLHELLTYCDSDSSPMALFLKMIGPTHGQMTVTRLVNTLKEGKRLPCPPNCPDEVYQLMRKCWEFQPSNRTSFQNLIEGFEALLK
T2 sequence (O60674 whole entry): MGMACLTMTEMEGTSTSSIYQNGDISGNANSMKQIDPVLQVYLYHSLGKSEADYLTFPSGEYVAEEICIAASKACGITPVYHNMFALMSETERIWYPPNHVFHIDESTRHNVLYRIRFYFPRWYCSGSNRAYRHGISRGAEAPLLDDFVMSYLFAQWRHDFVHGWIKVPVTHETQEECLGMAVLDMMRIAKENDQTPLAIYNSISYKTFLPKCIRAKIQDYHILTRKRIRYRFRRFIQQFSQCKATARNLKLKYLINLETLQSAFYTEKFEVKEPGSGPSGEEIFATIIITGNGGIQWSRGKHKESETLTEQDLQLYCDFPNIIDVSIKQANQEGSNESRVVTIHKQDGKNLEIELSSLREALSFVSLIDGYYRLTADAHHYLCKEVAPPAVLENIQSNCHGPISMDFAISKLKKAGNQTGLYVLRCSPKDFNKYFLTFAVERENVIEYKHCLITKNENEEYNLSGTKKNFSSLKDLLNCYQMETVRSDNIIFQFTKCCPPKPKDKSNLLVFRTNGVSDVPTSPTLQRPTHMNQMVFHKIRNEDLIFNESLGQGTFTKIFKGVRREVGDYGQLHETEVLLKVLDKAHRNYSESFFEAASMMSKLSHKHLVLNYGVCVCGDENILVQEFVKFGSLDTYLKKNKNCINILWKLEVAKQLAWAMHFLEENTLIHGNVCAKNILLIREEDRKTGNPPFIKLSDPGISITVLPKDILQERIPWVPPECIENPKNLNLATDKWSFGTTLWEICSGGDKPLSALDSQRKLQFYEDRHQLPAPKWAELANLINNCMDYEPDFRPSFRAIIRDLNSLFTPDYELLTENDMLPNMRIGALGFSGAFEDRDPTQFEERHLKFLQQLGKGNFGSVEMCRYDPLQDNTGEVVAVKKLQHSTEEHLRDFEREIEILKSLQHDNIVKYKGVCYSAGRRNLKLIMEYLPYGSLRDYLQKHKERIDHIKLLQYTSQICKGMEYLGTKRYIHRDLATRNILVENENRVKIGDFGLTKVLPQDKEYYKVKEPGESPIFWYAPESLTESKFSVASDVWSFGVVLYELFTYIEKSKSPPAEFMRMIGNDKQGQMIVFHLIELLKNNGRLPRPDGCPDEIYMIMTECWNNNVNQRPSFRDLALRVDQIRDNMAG
T4 sequence (P29597 whole entry): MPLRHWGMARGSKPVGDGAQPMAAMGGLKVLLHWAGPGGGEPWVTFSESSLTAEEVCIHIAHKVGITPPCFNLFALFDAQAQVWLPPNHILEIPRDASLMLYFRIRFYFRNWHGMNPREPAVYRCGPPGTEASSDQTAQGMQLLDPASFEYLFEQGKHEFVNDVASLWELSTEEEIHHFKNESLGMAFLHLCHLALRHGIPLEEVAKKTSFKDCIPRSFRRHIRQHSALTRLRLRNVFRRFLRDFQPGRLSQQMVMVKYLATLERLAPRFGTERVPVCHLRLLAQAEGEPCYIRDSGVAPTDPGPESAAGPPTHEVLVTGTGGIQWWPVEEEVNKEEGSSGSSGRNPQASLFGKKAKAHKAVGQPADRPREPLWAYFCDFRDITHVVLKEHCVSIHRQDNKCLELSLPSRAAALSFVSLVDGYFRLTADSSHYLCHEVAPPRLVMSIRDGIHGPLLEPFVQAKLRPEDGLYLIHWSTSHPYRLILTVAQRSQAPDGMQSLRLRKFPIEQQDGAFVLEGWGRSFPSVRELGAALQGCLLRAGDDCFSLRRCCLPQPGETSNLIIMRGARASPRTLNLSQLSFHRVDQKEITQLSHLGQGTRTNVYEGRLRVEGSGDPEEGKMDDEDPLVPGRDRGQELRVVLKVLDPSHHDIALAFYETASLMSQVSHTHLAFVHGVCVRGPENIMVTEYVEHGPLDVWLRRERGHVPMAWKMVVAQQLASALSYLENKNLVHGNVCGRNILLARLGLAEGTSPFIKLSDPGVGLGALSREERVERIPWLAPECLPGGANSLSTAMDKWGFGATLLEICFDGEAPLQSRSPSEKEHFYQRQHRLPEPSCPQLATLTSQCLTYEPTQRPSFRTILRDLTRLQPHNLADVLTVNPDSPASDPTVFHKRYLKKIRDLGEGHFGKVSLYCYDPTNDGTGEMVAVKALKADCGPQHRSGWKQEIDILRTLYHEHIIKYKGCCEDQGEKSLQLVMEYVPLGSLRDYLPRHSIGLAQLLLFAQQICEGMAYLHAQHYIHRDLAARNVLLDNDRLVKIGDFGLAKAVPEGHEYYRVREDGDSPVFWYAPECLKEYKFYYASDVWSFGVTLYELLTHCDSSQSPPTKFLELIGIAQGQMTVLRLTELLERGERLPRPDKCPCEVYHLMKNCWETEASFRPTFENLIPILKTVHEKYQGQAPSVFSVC

Row | SMILES | Selectivity ratio over JAK2, JAK1 (JAK1) | pIC50 (JAK1) | pIC50 (JAK2) | pIC50 (JAK3) | pIC50 (TYK2) | Selectivity ratio over JAK2, Tyk2 (TYK2; Tyk2 over JAK2) | Selectivity ratio over JAK2, JAK3 (JAK3)
1 | CS(=O)(=O)N1CCC[C@H]1CNc1nc(Nc2cnn(CCO)c2)ncc1Cl [Example 13, (S)-2-(4-((5-chloro-4-(((1-(methylsulfonyl)pyrrolidin-2-yl)methyl)amino)pyrimidin-2-yl)amino)-1H-pyrazol-1-yl)ethanol] | JAK1 = 13 | > 7.00 | 6.00 to 7.00 | > 7.00 | > 7.00 | – | –
2 | C=CS(=O)(=O)N1CCC[C@H]1CNc1nc(Nc2cnn(C)c2)ncc1Cl [Example 14, (S)-5-chloro-N^2-(1-methyl-1H-pyrazol-4-yl)-N^4-((1-(vinylsulfonyl)pyrrolidin-2-yl)methyl)pyrimidine-2,4-diamine] | – | 6.00 to 7.00 | 5.00 to 6.00 | > 7.00 | > 7.00 | Tyk2 = 14 | –
3 | C=CS(=O)(=O)N1CCC[C@H]1CNc1nc(Nc2cnn(CCO)c2)ncc1Cl [Example 15, (S)-2-(4-((5-chloro-4-(((1-(vinylsulfonyl)pyrrolidin-2-yl)methyl)amino)pyrimidin-2-yl)amino)-1H-pyrazol-1-yl)ethanol] | JAK1 = 13 | > 7.00 | 6.00 to 7.00 | > 7.00 | > 7.00 | – | –
4 | CC(=O)N1CC(CNc2nc(Nc3cnn(C)c3)ncc2Cl)C1 [Example 16, 1-(3-(((5-chloro-2-((1-methyl-1H-pyrazol-4-yl)amino)pyrimidin-4-yl)amino)methyl)azetidin-1-yl)ethanone] | – | < 5.00 | < 5.00 | < 5.00 | < 5.00 | – | –
5 | CC(=O)N1CC(CNc2nc(Nc3cnn(CCO)c3)ncc2Cl)C1 [Example 17, 1-(3-(((5-chloro-2-((1-(2-hydroxyethyl)-1H-pyrazol-4-yl)amino)pyrimidin-4-yl)amino)methyl)azetidin-1-yl)ethanone] | – | 5.00 to 6.00 | < 5.00 | 5.00 to 6.00 | 5.00 to 6.00 | – | –
6 | Cn1cc(Nc2ncc(Cl)c(NCC3CN(S(C)(=O)=O)C3)n2)cn1 [Example 18, 5-chloro-N^2-(1-methyl-1H-pyrazol-4-yl)-N^4-((1-(methylsulfonyl)azetidin-3-yl)methyl)pyrimidine-2,4-diamine] | – | < 5.00 | < 5.00 | < 5.00 | < 5.00 | – | –
7 | CS(=O)(=O)N1CC(CNc2nc(Nc3cnn(CCO)c3)ncc2Cl)C1 [Example 19, 2-(4-((5-chloro-4-(((1-(methylsulfonyl)azetidin-3-yl)methyl)amino)pyrimidin-2-yl)amino)-1H-pyrazol-1-yl)ethanol] | – | 6.00 to 7.00 | 5.00 to 6.00 | > 7.00 | 6.00 to 7.00 | – | –
8 | CC(=O)N1CC[C@H](CNc2nc(Nc3cnn(C)c3)ncc2Cl)C1 [Example 20, (R)-1-(3-(((5-chloro-2-((1-methyl-1H-pyrazol-4-yl)amino)pyrimidin-4-yl)amino)methyl)pyrrolidin-1-yl)ethanone] | JAK1 = 42 | 6.00 to 7.00 | 5.00 to 6.00 | 5.00 to 6.00 | 6.00 to 7.00 | – | –
9 | CC(=O)N1CC[C@H](CNc2nc(Nc3cnn(CCO)c3)ncc2Cl)C1 [Example 21, (R)-1-(3-(((5-chloro-2-((1-(2-hydroxyethyl)-1H-pyrazol-4-yl)amino)pyrimidin-4-yl)amino)methyl)pyrrolidin-1-yl)ethanone] | JAK1 = 78 | > 7.00 | 5.00 to 6.00 | 6.00 to 7.00 | > 7.00 | – | –
10 | C=CC(=O)N1CC[C@H](CNc2nc(Nc3cnn(C)c3)ncc2Cl)C1 [Example 22, (R)-1-(3-(((5-chloro-2-((1-methyl-1H-pyrazol-4-yl)amino)pyrimidin-4-yl)amino)methyl)pyrrolidin-1-yl)prop-2-en-1-one] | – | 6.00 to 7.00 | 5.00 to 6.00 | > 7.00 | 6.00 to 7.00 | – | JAK3 = 610
11 | C=CC(=O)N1CC[C@H](CNc2nc(Nc3cnn(CCO)c3)ncc2Cl)C1 [Example 23, (R)-1-(3-(((5-chloro-2-((1-(2-hydroxyethyl)-1H-pyrazol-4-yl)amino)pyrimidin-4-yl)amino)methyl)pyrrolidin-1-yl)prop-2-en-1-one] | – | > 7.00 | 5.00 to 6.00 | > 7.00 | > 7.00 | – | JAK3 = 270
12 | Cn1cc(Nc2ncc(Cl)c(NC[C@H]3CCN(S(C)(=O)=O)C3)n2)cn1 [Example 24, (R)-5-chloro-N^2-(1-methyl-1H-pyrazol-4-yl)-N^4-((1-(methylsulfonyl)pyrrolidin-3-yl)methyl)pyrimidine-2,4-diamine] | JAK1 = 23 | > 7.00 | 6.00 to 7.00 | 6.00 to 7.00 | > 7.00 | – | –
13 | C=CS(=O)(=O)N1CC[C@H](CNc2nc(Nc3cnn(C)c3)ncc2Cl)C1 [Example 25, (R)-5-chloro-N^2-(1-methyl-1H-pyrazol-4-yl)-N^4-((1-(vinylsulfonyl)pyrrolidin-3-yl)methyl)pyrimidine-2,4-diamine] | – | 6.00 to 7.00 | < 5.00 | > 7.00 | 6.00 to 7.00 | – | JAK3 = 556
